Several values for one entry are separate records, joined by “and”; a condition that tells them apart may be missing. Equal values may be shown once. Read-outs that look alike come from different tables or passages of the source.
Key:
SXR and SRC-1 RID = SXR and SRC-1 RID (Homo sapiens, UniProt O75469); experiment: Mammalian two-hybrid assay, Gal-SRC-1 RID + VP-L-SXR in CV-1 cells; assay type: cell-based; conditions: isopimpinellin 50 μM, RIF 10 μM
[1] = tested on: GST (cumene hydroperoxide); experiment: Liver GST activity, cumene hydroperoxide as substrate, after oral dosing of mice; assay type: in vivo; conditions: female SENCAR mice, even at the highest doses, data not shown
P450s 2B9/10 [2] = conditions: mice treated 3 consecutive days; ref Kleiner et al., 2001; cited from earlier work
GSTα = experiment: Western blot of liver cytosol, GSTα protein expression; assay type: in vivo; conditions: SENCAR mice, 35, 70, 150 mg/kg p.o., particularly at the highest doses
GSTπ = experiment: Western blot of liver cytosol, GSTπ protein expression; assay type: in vivo; conditions: SENCAR mice, 35, 70, 150 mg/kg p.o.
Cyp2b10 mRNA = experiment: Northern blot of liver RNA, Cyp2b10 mRNA in CAR; conditions: isopimpinellin 150 mg/kg p.o. 24 h, TC 3 mg/kg i.p. 6 h
SXR [3] = molecular target: SXR (Homo sapiens, UniProt O75469); experiment: SXR-DR3 reporter assay; assay type: cell-based
Target sequence in this assay (O75469 whole entry): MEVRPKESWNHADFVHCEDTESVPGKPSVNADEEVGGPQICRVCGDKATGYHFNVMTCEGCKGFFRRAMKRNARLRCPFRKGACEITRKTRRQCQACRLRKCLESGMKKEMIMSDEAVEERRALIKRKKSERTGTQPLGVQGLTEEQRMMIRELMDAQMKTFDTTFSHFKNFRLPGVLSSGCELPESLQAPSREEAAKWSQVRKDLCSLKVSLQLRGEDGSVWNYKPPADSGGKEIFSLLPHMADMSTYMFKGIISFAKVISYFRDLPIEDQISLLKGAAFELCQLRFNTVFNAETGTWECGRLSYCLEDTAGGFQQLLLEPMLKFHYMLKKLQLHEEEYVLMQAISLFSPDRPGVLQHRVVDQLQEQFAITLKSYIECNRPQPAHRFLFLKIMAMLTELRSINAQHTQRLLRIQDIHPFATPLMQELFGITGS
Target sequence in this assay (P19793 whole entry partner): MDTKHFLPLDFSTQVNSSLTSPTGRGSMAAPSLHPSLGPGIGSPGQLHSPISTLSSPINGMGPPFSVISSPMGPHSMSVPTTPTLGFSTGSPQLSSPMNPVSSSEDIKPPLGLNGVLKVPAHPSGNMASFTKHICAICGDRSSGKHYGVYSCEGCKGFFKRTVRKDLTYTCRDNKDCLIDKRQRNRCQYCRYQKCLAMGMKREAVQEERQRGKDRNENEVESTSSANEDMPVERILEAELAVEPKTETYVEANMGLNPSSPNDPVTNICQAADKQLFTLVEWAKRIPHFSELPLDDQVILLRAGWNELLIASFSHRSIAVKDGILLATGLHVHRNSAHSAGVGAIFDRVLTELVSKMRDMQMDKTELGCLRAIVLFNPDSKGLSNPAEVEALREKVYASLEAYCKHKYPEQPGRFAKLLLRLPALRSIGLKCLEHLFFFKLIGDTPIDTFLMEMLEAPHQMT

PXR = molecular target: T1, PXR (Mus musculus, UniProt O54915); experiment: GAL-PXR reporter assay; assay type: cell-based
T1 sequence (O54915 143-430 limits assumed): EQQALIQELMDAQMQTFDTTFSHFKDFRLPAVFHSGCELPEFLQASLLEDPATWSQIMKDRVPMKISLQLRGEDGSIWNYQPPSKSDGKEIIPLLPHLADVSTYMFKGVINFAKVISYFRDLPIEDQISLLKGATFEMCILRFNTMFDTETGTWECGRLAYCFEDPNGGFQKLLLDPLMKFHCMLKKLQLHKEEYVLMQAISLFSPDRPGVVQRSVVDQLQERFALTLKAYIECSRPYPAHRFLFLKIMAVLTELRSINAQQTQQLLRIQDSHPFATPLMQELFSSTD

P450 1A1/1A2 = conditions: mouse, in vivo
NQO = experiment: Liver cytosolic NQO activity; assay type: in vivo, mice; conditions: female SENCAR mice, 35, 70, 150 mg/kg p.o. 4 days, vs corn oil
[4] = molecular target: mCAR-LBD fused to the Gal4 DNA binding domain (Mus musculus, UniProt O35627); experiment: CAR transfection assay, Gal4-mCAR LBD fusion reporter in HepG2 cells; assay type: cell-based, murine; conditions: HepG2, 4 μM androstanol; 250 nM TC or 0.1–100 μM isopimpinellin, 24 h
P450 2B10 = conditions: mouse, in vivo
P450 = experiment: Liver microsomal P450 content after oral dosing of mice; assay type: in vivo; conditions: C57BL/6 mice, 100 mg/kg p.o. 3 days, vs corn oil
GST (DCNB, GST μ) = experiment: Liver cytosolic GST activity, DCNB as substrate, after oral dosing of mice; assay type: in vivo; conditions: C57BL/6 mice, 100 mg/kg p.o. 3 days, vs corn oil
P450s 1A1/2 = experiment: Liver microsomal P450 1A activity; assay type: in vivo, mice; conditions: mouse, in vivo
GSTa1 mRNA = experiment: Northern blot of liver RNA, GSTa1 mRNA in CAR; assay type: in vivo, mice; conditions: isopimpinellin 150 mg/kg p.o. 24 h; TC 3 mg/kg i.p. 6 h
P450 3A11 = conditions: mouse, in vivo, po, 100 mg/kg
SXR [5] = molecular target: T2, SXR (Homo sapiens, UniProt O75469); experiment: GAL-SXR reporter assay; assay type: cell-based
T2 sequence (O75469 146-433 limits assumed): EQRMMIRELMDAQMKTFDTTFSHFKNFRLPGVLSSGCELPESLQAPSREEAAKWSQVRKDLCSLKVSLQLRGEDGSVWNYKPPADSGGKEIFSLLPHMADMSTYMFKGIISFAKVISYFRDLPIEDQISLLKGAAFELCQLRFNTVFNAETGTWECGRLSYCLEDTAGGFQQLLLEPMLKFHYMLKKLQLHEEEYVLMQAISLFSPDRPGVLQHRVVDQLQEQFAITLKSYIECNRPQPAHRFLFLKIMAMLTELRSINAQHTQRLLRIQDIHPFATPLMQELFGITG

P450s 2B9/10 [6] = experiment: Liver microsomal P450 2B activity; assay type: in vivo, mice; conditions: mouse, in vivo
GSTp mRNA = experiment: Northern blot of liver RNA, GSTp mRNA in CAR; assay type: in vivo, mice; conditions: isopimpinellin 150 mg/kg p.o. 24 h; TC 3 mg/kg i.p. 6 h

SXR and SRC-1 RID, sequence (Q15788 570-780 partner limits assumed, one chain of several): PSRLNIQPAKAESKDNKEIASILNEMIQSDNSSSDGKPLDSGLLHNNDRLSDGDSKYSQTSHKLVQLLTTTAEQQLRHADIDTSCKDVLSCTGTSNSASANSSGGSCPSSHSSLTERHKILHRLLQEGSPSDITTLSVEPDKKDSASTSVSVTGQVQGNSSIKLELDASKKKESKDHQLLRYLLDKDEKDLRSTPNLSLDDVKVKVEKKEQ
mCAR-LBD fused to the Gal4 DNA binding domain, sequence (O35627 119-358 limits assumed): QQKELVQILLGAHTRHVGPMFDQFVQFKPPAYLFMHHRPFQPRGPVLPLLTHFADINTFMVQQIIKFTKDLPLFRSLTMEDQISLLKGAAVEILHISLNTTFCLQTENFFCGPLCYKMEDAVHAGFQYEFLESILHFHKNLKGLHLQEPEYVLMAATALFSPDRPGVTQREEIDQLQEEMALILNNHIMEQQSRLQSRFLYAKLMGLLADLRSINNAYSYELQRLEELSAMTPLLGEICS

COc1c2ccoc2c(OC)c2oc(=O)ccc12 [isopimpinellin, 5,8-dimethoxypsoralen]
Induced interaction of receptor LBD and SRC-1 (Figure 7B) (SXR and SRC-1 RID): ~ 2 fold
GST activity using cumene hydroperoxide as a substrate [1]: no differences
Hepatic P450 2B9/10 activity at 1 h after the final dose (P450s 2B9/10 [2]): no elevation
Increase in hepatic P450 2B9/10 activity at 24 h after the final dose (P450s 2B9/10 [2]): 100 fold
Hepatic expression of GST α protein, dose-response study (GSTα): greatly increased
Hepatic expression of GST π protein, dose-response study (GSTπ): modest increase
Induction of hepatic Cyp2b10 mRNA, CAR(−/−) mice (Cyp2b10 mRNA): attenuated
Induction of hepatic Cyp2b10 mRNA, CAR(+/+) mice (Cyp2b10 mRNA; male and female): ~ 4 fold
EC50 (SXR [3]): 39.8 µM
Max (concentration to reach maximal effect), SXR-DR3 (SXR [3]; CV-1 cells, full length SXR): 100,000 nM
EC50 (PXR): ~17 µM
Max (concentration to reach maximal effect), GAL-PXR (PXR; CV-1 cells, 18–24 h): 100,000 nM
EC50 (PXR; ED50, GAL-PXR activation, CV-1 cells, 18–24 h, luciferase normalized by β-gal): 18 µM and 17.8 µM
Concentration to reach maximal effect, times higher than PCN (PXR; GAL-PXR reporter system): 30 times
P450 1A1/1A2 protein levels, dose-response study (P450 1A1/1A2): elevated
P450 1A1/1A2 protein expression (western blot densitometry) (P450 1A1/1A2; po, 100 mg/kg): increased
Liver cytosolic NQO activity, dose-response study (NQO): increased at all doses
Effect on the inhibitory effect of androstanol on Gal4 reporter expression (mCAR-LBD) [4]: counteracted
Increase in P450 2B9/10 protein expression (optical density), dose-response study (P450 2B10): 2–3 fold
P450 2B10 protein levels, dose-response study (P450 2B10): significantly elevated
P450 2B10 protein expression (western blot densitometry) (P450 2B10; po, 100 mg/kg): increased
P450 content, liver microsomes (P450): increased
GST activity using DCNB as a substrate, liver cytosol (GST (DCNB, GST μ)): highest increase
P450 1 activity, liver microsomes, dose-response study (P450s 1A1/2): significant increases
Increase in hepatic GSTa1 mRNA, female CAR(−/−) mice (GSTa1 mRNA): ~ 3 fold
Increase in hepatic GSTa1 mRNA, male CAR(−/−) mice (GSTa1 mRNA): ~ 8 fold
Increase in hepatic GSTa1 mRNA, male and female CAR(+/+) mice (GSTa1 mRNA): 10–11 fold
P450 3A11 protein expression (western blot densitometry) (P450 3A11): increased
EC50 (SXR [5]): ~35 µM
Max (concentration to reach maximal effect), GAL-SXR (SXR [5]; CV-1 cells, 18–24 h): 100,000 nM
EC50 (SXR [5]; ED50, GAL-SXR activation, CV-1 cells, 18–24 h, luciferase normalized by β-gal): 35.5 µM
Concentration to reach maximal effect, times higher than RIF (SXR [5]; GAL-SXR reporter system): 10 times
Increase in P450 2B9/10 enzyme activity, dose-response study (P450s 2B9/10 [6]): 300 fold
P450 2B activity, liver microsomes, dose-response study (P450s 2B9/10 [6]): significant increases
Increase in P450 2B activity (pentoxyresorufin), liver microsomes (P450s 2B9/10 [6]; po, 100 mg/kg): ~ 5 fold
Increase in hepatic GSTp mRNA, CAR(−/−) mice (GSTp mRNA): ≥ 5 fold
Increase in hepatic GSTp mRNA, female CAR(+/+) mice (GSTp mRNA): ~ 8 fold

From article PMC2585982 (Toxicology and applied pharmacology, 2008)
